# Assay results from ChEMBL document CHEMBL1201862, “PubChem BioAssay data set” (2004).
#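 Dose response: 5 concentrations. Exposure: 48 h. Format: 96-well plates. Endpoint: linear interpolation; highest concentration if not reached. GI50 = concentration required for 50% inhibition of growth.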 Calls of active or inactive are those of the source. No stated cut-off is given here; in the data, active = GI50 up to about 1.1 µM and inactive = higher.
# Experiments:
# Test in all cases: DTP human tumour cell line panel, 48 h
# OVCAR-3 = system: OVCAR-3
# A549 = system: A549
# SNB-75 = system: SNB-75
# RPMI-8226 = system: RPMI-8226
# COLO 205 = system: COLO 205
# SNB-78 = system: SNB-78
# TK-10 = system: TK-10
# HOP-92 = system: HOP-92
# MOLT-4 = system: MOLT-4
# UACC-62 = system: UACC-62
# KM-20L2 = system: KM-20L2
# HOP-62 = system: HOP-62
# CAKI-1 = system: CAKI-1
# M14 = system: M14
# SK-MEL-5 = system: SK-MEL-5
# SK-OV-3 = system: SK-OV-3
# NCI-H522 = system: NCI-H522
# SW-620 = system: SW-620
# EKVX = system: EKVX
# HCT-116 = system: HCT-116
# HOP-18 = system: HOP-18
# HCT-15 = system: HCT-15
# DMS-114 = system: DMS-114
# UO-31 = system: UO-31
# LXFL 529 = system: LXFL 529
# HCC 2998 = system: HCC 2998
# M19-MEL = system: M19-MEL
# RXF 631 = system: RXF 631
# A498 = system: A498
# 786-0 = system: 786-0
# RXF 393 = system: RXF 393
# Malme-3M = system: Malme-3M
# HT-29 = system: HT-29
# ACHN = system: ACHN
# SF-295 = system: SF-295
# SF-539 = system: SF-539
# OVCAR-8 = system: OVCAR-8
# OVCAR-4 = system: OVCAR-4
# SK-MEL-28 = system: SK-MEL-28
# OVCAR-5 = system: OVCAR-5
# DLD-1 = system: DLD-1
# SN12C = system: SN12C
# LOX IMVI = system: LOX IMVI
# UACC-257 = system: UACC-257
# XF498 = system: XF498
# NCI-H23 = system: NCI-H23
# SK-MEL-2 = system: SK-MEL-2
# IGROV-1 = system: IGROV-1
# KM12 = system: KM12
# SNB-19 = system: SNB-19
# NCI-H226 = system: NCI-H226
# K562 = system: K562
# DMS-273 = system: DMS-273
# U-251 = system: U-251
# SR = system: SR
smiles,measurement,setting,value
CCOc1cccc2nc3cccc(C(=O)NCCN(C)C)c3nc12,GI50,OVCAR-3,1600 nM (inactive)
same,GI50,A549,942 nM (active)
same,GI50,SNB-75,1450 nM (inactive)
same,GI50,RPMI-8226,948 nM (active)
same,GI50,COLO 205,632 nM (active)
same,GI50,SNB-78,1880 nM (inactive)
same,GI50,TK-10,1270 nM (inactive)
same,GI50,HOP-92,1390 nM (inactive)
same,GI50,MOLT-4,333 nM (active)
same,GI50,UACC-62,1470 nM (inactive)
same,GI50,KM-20L2,1270 nM (inactive)
same,GI50,HOP-62,469 nM (active)
same,GI50,CAKI-1,3160 nM (inactive)
same,GI50,M14,2190 nM (inactive)
same,GI50,SK-MEL-5,1780 nM (inactive)
same,GI50,SK-OV-3,7430 nM (inactive)
same,GI50,NCI-H522,2300 nM (inactive)
same,GI50,SW-620,543 nM (active)
same,GI50,EKVX,2250 nM (inactive)
same,GI50,HCT-116,447 nM (active)
same,GI50,HOP-18,3940 nM (inactive)
same,GI50,HCT-15,1080 nM
same,GI50,DMS-114,1030 nM (active)
same,GI50,UO-31,2190 nM (inactive)
same,GI50,LXFL 529,1790 nM (inactive)
same,GI50,HCC 2998,946 nM (active)
same,GI50,M19-MEL,1200 nM (inactive)
same,GI50,RXF 631,2600 nM (inactive)
same,GI50,A498,740 nM (active)
same,GI50,786-0,2510 nM (inactive)
same,GI50,RXF 393,1590 nM (inactive)
same,GI50,Malme-3M,995 nM (active)
same,GI50,HT-29,605 nM (active)
same,GI50,ACHN,372 nM (active)
same,GI50,SF-295,1530 nM (inactive)
same,GI50,SF-539,1140 nM (inactive)
same,GI50,OVCAR-8,891 nM (active)
same,GI50,OVCAR-4,1190 nM (inactive)
same,GI50,SK-MEL-28,1930 nM (inactive)
same,GI50,OVCAR-5,2020 nM (inactive)
same,GI50,DLD-1,1050 nM (active)
same,GI50,SN12C,719 nM (active)
same,GI50,LOX IMVI,480 nM (active)
same,GI50,UACC-257,1950 nM (inactive)
same,GI50,XF498,116 nM (active)
same,GI50,NCI-H23,1390 nM (inactive)
same,GI50,SK-MEL-2,1600 nM (inactive)
same,GI50,IGROV-1,1040 nM (active)
same,GI50,KM12,867 nM (active)
same,GI50,SNB-19,1890 nM (inactive)
same,GI50,NCI-H226,506 nM (active)
same,GI50,K562,470 nM (active)
same,GI50,DMS-273,582 nM (active)
same,GI50,U-251,1340 nM (inactive)
same,GI50,SR,305 nM (active)
